Test [1] is described as follows: Luminescence Cell-Based Dose Retest to Confirm Inhibitors of Cancer Stem Cells. [Related pubchem assays (depositor defined):AID2717, AID2721]. In kind it is functional. The note with it: Homo sapiens.
Test [2] is described as follows: cytotoxicity in HMLE control line with eGFP shRNA, dose response, counter-screen for HMLE_sh_ECad selective toxicity project, cell-based, HMLE_sh_eGFP, luminescence (AID 463074).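 Note: HMLE human mammary epithelial cells expressing control shRNA against eGFP.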 In kind it is functional, Homo sapiens. (In general: A counterscreen serves to expose hits that act by an unwanted route or on another target.)
The target in test [3] is T1, Heat shock factor protein 1 (Mus musculus, UniProt P38532).
T1 sequence (P38532 whole entry): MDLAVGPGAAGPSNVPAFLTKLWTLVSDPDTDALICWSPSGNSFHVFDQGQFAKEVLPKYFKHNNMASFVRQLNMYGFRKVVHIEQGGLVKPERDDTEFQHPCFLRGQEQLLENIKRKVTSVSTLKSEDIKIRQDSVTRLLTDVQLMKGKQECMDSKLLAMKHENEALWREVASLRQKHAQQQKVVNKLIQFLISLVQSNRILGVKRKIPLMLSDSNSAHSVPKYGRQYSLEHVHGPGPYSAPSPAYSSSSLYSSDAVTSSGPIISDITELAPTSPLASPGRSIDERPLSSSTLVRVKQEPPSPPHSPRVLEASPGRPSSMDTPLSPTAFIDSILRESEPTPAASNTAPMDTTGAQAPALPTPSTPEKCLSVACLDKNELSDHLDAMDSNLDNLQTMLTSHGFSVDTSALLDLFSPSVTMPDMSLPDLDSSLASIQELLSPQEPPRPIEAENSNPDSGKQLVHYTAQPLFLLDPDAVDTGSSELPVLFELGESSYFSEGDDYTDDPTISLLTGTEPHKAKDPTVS
The test is described as follows: inhibition of MG132-induced HSE-luciferase signal, confirmation, cell-based, NIH3T3, luminescence, dose retest (AID 2382).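 Note: NIH3T3 fibroblasts with HSF1-driven luciferase reporter stressed by proteasome inhibitor MG132; luminescence from HSF1-driven luciferase expression after 8 hours of MG132 stress.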 It is filed as functional.

The test system of the next test is INS1. As to the kind of experiment: beta cell apoptosis inhibitors, cytokine rescue, dose response, luminescence, retest (AID 449756).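 Note: cell death triggered by IL-1 beta plus TNF-alpha plus IFN-gamma mixture; protective hits raise ATP signal compared with cytokine alone wells.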 It is filed as functional, cell-based. The note with it: Rattus norvegicus.
The nature of test [4]: control 3'UTR Renilla luciferase suppression, dose response, counter-screen for Shn3 inhibitor project, cell-based, Clone20-Shn3RL, cherry-picked (AID 624133). It is filed as functional.
Test [5] in a line: Shn3 3'UTR reporter inhibitors, dose response, cell-based, Clone20 osteoblasts, firefly luciferase, cherry-picked (AID 624132).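 Note: firefly luciferase luminescence from reporter carrying the Shn3 3'UTR in osteoblasts.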 It is filed as functional.
For a further test, the target named is T2, Protein RecA (Mycobacterium tuberculosis, UniProt P9WHJ3).
T2 sequence (P9WHJ3 whole entry): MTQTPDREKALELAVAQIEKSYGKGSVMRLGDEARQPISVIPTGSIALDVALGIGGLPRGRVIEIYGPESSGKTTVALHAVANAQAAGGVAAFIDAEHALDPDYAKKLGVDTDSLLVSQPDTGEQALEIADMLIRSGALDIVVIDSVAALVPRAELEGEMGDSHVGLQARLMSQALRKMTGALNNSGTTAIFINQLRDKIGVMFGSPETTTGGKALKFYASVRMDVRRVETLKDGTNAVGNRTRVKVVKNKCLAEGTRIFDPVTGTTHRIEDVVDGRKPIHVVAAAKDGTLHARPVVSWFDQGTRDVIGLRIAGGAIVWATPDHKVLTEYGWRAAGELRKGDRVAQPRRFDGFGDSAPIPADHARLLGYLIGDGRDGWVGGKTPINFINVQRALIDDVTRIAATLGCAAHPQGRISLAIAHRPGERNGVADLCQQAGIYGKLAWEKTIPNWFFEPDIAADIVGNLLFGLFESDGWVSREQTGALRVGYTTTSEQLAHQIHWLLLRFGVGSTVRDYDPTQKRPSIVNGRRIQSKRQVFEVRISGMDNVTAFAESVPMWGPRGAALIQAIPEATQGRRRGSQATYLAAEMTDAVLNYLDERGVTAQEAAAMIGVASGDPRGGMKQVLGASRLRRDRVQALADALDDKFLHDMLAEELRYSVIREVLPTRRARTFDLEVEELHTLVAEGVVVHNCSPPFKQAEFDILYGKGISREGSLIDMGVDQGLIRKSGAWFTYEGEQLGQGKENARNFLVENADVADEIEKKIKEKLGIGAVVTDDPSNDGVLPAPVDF
The test is described as follows: Fluorescence Cell-Free Homogeneous Dose Retest to Identify Inhibitors of RecA-Intein Splicing Activity. [Related pubchem assays (depositor defined):AID2097, AID2223, AID489010, AID492950]. In kind it is functional.

The next test concerns Jurkat. The test is described as follows: antigen receptor-induced NF-kB inhibitors, dose response, Jurkat, luciferase reporter, luminescence, B- and T-cell (AID 489004).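 Note: NF-kB luciferase reporter Jurkat cells stimulated with PMA plus ionomycin.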 To be noted: Homo sapiens. It is filed as functional, cell-based. (A reporter such as luciferase makes a cellular process visible.)
In test [6] the target is T3, Replicative DNA helicase DnaB (Mycobacterium tuberculosis, UniProt P9WMR3).
T3 sequence (P9WMR3 whole entry): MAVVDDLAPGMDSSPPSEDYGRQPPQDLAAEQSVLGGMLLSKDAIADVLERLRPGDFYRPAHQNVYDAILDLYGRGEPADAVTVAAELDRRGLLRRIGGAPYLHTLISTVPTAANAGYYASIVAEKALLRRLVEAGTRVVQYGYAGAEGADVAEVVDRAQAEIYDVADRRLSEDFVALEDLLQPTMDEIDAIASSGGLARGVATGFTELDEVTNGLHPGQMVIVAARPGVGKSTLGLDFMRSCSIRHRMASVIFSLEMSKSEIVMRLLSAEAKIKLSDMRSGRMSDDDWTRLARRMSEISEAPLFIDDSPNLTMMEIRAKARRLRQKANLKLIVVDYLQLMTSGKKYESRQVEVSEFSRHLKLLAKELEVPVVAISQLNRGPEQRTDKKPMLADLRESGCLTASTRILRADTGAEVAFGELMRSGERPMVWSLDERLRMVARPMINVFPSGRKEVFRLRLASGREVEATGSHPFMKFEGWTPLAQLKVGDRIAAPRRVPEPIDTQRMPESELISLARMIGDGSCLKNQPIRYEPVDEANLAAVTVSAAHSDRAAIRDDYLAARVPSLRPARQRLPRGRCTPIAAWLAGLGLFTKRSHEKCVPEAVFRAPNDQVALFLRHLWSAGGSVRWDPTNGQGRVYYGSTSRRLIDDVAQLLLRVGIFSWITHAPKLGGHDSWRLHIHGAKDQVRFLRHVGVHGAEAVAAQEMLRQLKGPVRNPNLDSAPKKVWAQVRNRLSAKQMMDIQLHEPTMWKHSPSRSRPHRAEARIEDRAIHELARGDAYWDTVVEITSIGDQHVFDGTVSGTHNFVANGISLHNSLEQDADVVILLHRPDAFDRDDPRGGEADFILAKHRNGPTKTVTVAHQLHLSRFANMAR
As to the kind of experiment: DnaB intein splicing inhibitors, dose response, biochemical, cell-free fluorescence (AID 449749). In kind it is functional.

Test [7] is described as follows: Vero cell cytotoxicity, dose response, cytotoxicity control for Vif-APOBEC3G degradation inhibitor project, Vero cells (AID 1117358). It is filed as functional. The note with it: Human immunodeficiency virus 1, Vero.
The nature of test [8]: cytotoxicity in HEK-293T NF-kB-Luc cells, dose response, cytotoxicity control for B/T-cell NF-kB inhibitor project, cell-based, uHTS hits (AID 489019).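 Note: IC50 reflects cytotoxicity as loss of cell viability.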 It is filed as functional.
The target in the next test is Melanocortin receptor 4 (Homo sapiens, UniProt P32245). As to the kind of experiment: MC4R antagonist potency on cAMP, dose response, cell-based, TR-FRET, biased antagonists (AID 602298).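 Note: antagonist potency against agonist-stimulated cAMP production.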 It is filed as functional. (In general: TR-FRET usually uses a lanthanide donor and a delayed reading to cut background.)
Chain of Melanocortin receptor 4 (P32245 whole entry): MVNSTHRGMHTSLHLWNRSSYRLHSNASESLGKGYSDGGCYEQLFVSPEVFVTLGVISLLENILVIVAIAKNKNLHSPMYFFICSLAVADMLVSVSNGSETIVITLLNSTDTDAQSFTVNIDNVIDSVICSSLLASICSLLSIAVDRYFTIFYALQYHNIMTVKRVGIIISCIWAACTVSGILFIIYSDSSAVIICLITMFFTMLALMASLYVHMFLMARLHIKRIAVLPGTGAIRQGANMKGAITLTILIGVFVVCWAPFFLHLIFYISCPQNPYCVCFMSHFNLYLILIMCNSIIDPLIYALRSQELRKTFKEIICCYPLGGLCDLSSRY
Test [9] can be described thus: growth suppression of beta-catenin-knockout colon cells, dose response, cell-based, HCT116, human colon tumor (AID 1045).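 Note: HCT116 colon tumor cells with beta catenin knocked out; cells exposed to compound for 60 hours.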 In kind it is functional.
A short description of test [10]: HepG2 cell cytotoxicity, dose response, cytotoxicity control for Shn3 inhibitor project, CellTiter-Glo, cherry-picked (AID 624134). In kind it is functional, cell-based.
A short description of test [11]: inhibitors of Vif binding to APOBEC3G peptide, primary screen, biochemical, TR-FRET, GST-Vif 1-94, biotin-A3G peptide, dose response retest (AID 1117319).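 Note: TR-FRET signal of purified GST-Vif binding a biotinylated A3G peptide; inhibitors lower the FRET signal by blocking Vif and A3G binding.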 In kind it is functional.
A short description of test [12]: nonselective inhibitors of cellular cAMP signaling, dose response, counter-screen for MC4R biased antagonist project, cell-based, TR-FRET cAMP detection (AID 602305).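 Note: U2OS cells stimulated with forskolin near its EC80 as the cAMP inducer; potency is for inhibition of forskolin-stimulated cAMP signaling.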 It is filed as functional.
Test [13] in a line: growth suppression of PTEN-null colon cells, dose response, cell-based, HCT116 PTEN knockout (AID 1047).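 Note: HCT116 colon tumor cells with PTEN knocked out; cells exposed to compound for 60 hours before readout; potency for loss of cell viability measured by luminescence.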 It is filed as functional.
Test [14] in a line: Luminescence-based dose response cell-based high throughput screening assay for cytotoxic compounds using the IEC-6 intestinal epithelial cell line. [Related pubchem assays: 1858 (Summary AID.), 1825 (Counterscreen.), 1907 (Confirmation screen.)]. In kind it is functional.
The subject of test [15] is A-375. The test is described as follows: MITF: Counter assay: A375 proliferation Measured in Cell-Based System Using Plate Reader - 2084-03_Inhibitor_Dose_DryPowder_Activity. [Related pubchem assays (depositor defined):AID488944]. In kind it is functional. To be noted: Homo sapiens.
Test [16] relates to A-375. The test is described as follows: A375 melanoma cell viability reduction, dose response, counter-screen for MITF modulator project, cherry-pick samples, set 2 (AID 540335). In kind it is functional, cell-based. The note with it: Homo sapiens.
The subject of test [17] is H4. The test is described as follows: inhibitors of control reporter signal in H4 cells – cell-based, plate reader, dry powder samples, counter-screen for prion reporter project, dose response (AID 540255). In kind it is functional. To be noted: Homo sapiens.
Test [18] concerns H4. The test is described as follows: Inhibitors of Prion Protein 5' UTR mRNA Measured in Cell-Based System Using Plate Reader - 2078-01_Inhibitor_Dose_DryPowder_Activity. [Related pubchem assays (depositor defined):AID488894]. To be noted: Homo sapiens. It is filed as functional.
Test [19] addresses Beta-adrenergic receptor kinase 1 (Homo sapiens, UniProt P25098). As to the kind of experiment: GRK2 inhibitors displacing RNA aptamer, dose response, biochemical, flow cytometry beads, FAM-aptamer, powder set 1 (AID 588720).

Active and inactive are the calls of the source. Some results are limits rather than exact numbers.

Chain of Beta-adrenergic receptor kinase 1 (P25098 whole entry): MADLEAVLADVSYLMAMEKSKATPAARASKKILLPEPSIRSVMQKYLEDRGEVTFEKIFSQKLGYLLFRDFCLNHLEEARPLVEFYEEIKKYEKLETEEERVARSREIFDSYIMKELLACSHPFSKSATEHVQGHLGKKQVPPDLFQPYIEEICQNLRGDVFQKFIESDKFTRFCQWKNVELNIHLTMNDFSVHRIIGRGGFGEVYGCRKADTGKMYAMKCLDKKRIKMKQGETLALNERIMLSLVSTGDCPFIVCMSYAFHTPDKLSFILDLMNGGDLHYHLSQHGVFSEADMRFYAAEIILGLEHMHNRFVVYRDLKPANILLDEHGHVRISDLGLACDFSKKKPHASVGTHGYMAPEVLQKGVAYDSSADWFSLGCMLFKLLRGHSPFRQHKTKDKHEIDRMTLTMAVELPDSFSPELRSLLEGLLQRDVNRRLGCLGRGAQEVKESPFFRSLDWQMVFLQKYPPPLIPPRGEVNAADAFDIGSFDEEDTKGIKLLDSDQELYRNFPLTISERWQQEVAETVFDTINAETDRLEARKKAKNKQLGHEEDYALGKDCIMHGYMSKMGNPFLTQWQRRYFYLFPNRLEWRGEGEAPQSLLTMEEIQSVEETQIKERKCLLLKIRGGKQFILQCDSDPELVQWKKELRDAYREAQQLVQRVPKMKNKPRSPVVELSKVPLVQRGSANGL

Usually AC50 stands for the concentration at which the activity in the assay is half-maximal. Usually EC50 stands for the concentration that produces a half-maximal response. As for `Cc1oc(/N=C/c2ccccc2)c(C#N)c1C`, the AC50 in test [1] is > 195 µM (inactive); in test [2], 33.8 µM (active); in the test on INS1, > 260 µM (inactive). Moreover, the half-maximal effective concentration (EC50) in test [3] is listed as > 195 µM (not active).

One may read the IC50 as the point on the concentration scale where inhibition reaches its midpoint. Usually CC50 stands for the concentration giving 50% cytotoxicity. For the molecule `C#CC(=O)N(c1cc(OC)ccc1OC)C(C(=O)NC1CCCC1)c1cccs1` (centres undefined), the concentration at half-maximal activity (AC50) in test [4] is 563 nM (active); in test [5], 4.57 µM (active); in test [6], 1.94 µM (active); in [10] it was 1.25 µM (active). For the same molecule, the EC50 at Protein RecA is 2.46 µM (active); in test [9], 3.99 µM (active); in [3] it was 0.692 µM (active); in test [13], 4.13 µM (active). Further, the 50% inhibitory concentration (IC50) in the test on Jurkat was 230 nM (active); in test [8], 55.6 µM (inactive); at Melanocortin receptor 4 it was > 64.6 µM (inactive); in test [11], > 100 µM (active); in test [12] it was > 64.6 µM (inactive); in test [14], 96 nM (active). Besides, the CC50 in [7] was 87 nM (active).

`COc1ccc(CCC(=O)N2CCc3ccccc32)cc1`: the AC50 in the test on A-375 [15] and in the test with A-375 [16] was > 35 µM (active) throughout.

Turning to `CCCCc1ccc(-n2nc3cc(Cl)c(C(=O)NC(C)(C)C)cc3n2)cc1`, the figures for the concentration at half-maximal activity (AC50) in the test on H4 [17] and in the test with H4 [18] were < 20 nM (active) and 32 nM (active), respectively.

On to `CCOc1ccc(CCNC(=O)CCS(=O)(=O)c2ccc(Br)cc2)cc1OCC`, for which the EC50 in test [19] was 17.7 µM (inactive).
